{
  "source": "paper PMC11240924",
  "about": "“Isolation, Identification, and Biological Activities of a New Chlorin e6 Derivative” (International Journal of Molecular Sciences, 2024)",
  "test": "Singlet oxygen photogeneration (DPBF quenching)",
  "details": "1 µM, DMSO, DPBF 50 μM, 660 nm laser 0.5 J/cm^2",
  "method": "Singlet oxygen photoregeneration was carried out using 1, 3-diphenylisobenzofuran (DPBF) in DMSO. DPBF is a selective ^1O2 acceptor that reacts with ^1O2. The sample solutions of DPBF (50 μM) which contained DPBF only (50 μM, as a control), MB (1, 5, and 10 μM), chlorin e6 (1, 5, and 10 μM), and rhodin g7 7^1-ethyl ester (1, 5, and 10 μM) were prepared under dark conditions. All of the samples were placed in a 96-well plate, which was covered with aluminum foil. The samples were then irradiated (660 nm, 50 mW, 0.5 J/cm^2) for 1 min and 40 s, and after irradiation, the visible spectra of the sample solutions were measured spectrophotometrically. The normalized absorbance of DPBF at 418 nm was measured in these samples. The ^1O2 photo-generation activities of MB, chlorin e6, and rhodin g7 7^1-ethyl ester can be compared with the different absorbance decay of each sample relative to the DPBF control sample.",
  "data": [
    {"smiles": "CN(C)c1ccc2nc3ccc(=[N+](C)C)cc-3sc2c1", "note": "[MB, Methylene blue, reference compound]", "values": [
      {"measurement": "^1O2 generation (DPBF absorbance at 418 nm)", "result": 22.22, "unit": "%"}
    ]}
  ]
}
